Results: patent US10253322B2, “Method for the production of transgenic plants” (MONSANTO TECHNOLOGY LLC, priority 2001, dated 2019)

What was measured:
[1] = system: wheat mesocotyl explants; assay: Multiple bud induction from primary meristems on multiple shoot inducing media, wheat mesocotyl explants; assay type: cell-based; details: 4 weeks after culture initiation (Table 3)
Procedure: A. Wheat mesocotyl explant: Mature wheat seeds were surface sterilized first in 70% ethanol for 1 min. and then soaked in 20% CLOROX® (5.25% sodium hypochlorite) and shaken at 250 rpm for 20 min. The seeds were then rinsed five times with sterile distilled water and then placed in 100×25 mm petri dishes containing a sterile piece of felt and ˜15 mL of double distilled sterile water with 5 μM BA for germination. The seeds were cultured for 1 day in darkness at ˜24° C. Mesocotyl sections about 2-3 mm in length were then excised by removing the upper portion of the coleoptile, approximately 1-1.5 mm in length, and root tissue around the crown region. These mesocotyl explants contain at least several different and distinct meristems, such as a scutellar node, a coleoptile node, a first leaf bud and possibly several leaf nodes, and an apical meristem. This mesocotyl explant thus comprises an apical meristem and several axillary meristems, including the scutellar node meristem. It is important when excising the mesocotyl explant to leave a whole piece of the scutellum attached to the explant, because the scutellar node meristem contributes a large primary meristem from which upwards of 100 buds can be produced via the method of the present invention, relative to the small primary meristems contributed by the other meristems from which a smaller number of buds can be produced. […]

[2] = system: wheat mesocotyl explants; assay: Multiple shoot production with cytokinins alone, wheat mesocotyl explants; assay type: cell-based; details: cytokinin 5 mg/L, 32 days after culture
Procedure: A. Wheat mesocotyl explant: Mature wheat seeds were surface sterilized first in 70% ethanol for 1 min. and then soaked in 20% CLOROX® (5.25% sodium hypochlorite) and shaken at 250 rpm for 20 min. The seeds were then rinsed five times with sterile distilled water and then placed in 100×25 mm petri dishes containing a sterile piece of felt and ˜15 mL of double distilled sterile water with 5 μM BA for germination. The seeds were cultured for 1 day in darkness at ˜24° C. Mesocotyl sections about 2-3 mm in length were then excised by removing the upper portion of the coleoptile, approximately 1-1.5 mm in length, and root tissue around the crown region. These mesocotyl explants contain at least several different and distinct meristems, such as a scutellar node, a coleoptile node, a first leaf bud and possibly several leaf nodes, and an apical meristem. This mesocotyl explant thus comprises an apical meristem and several axillary meristems, including the scutellar node meristem. […] It is also important that the explants have all of the described meristems intact after excision, in order to maximize multiple bud response in culture.
Wheat explants such as mesocotyl sections from seedlings, mature embryos from mature seeds, and immature embryos from immature seeds were cultured on multiple shoot inducing media comprising combinations of cytokinins, auxins and abscisic acid (ABA). […] The particular media compositions used for this invention are described in detail in Table 1. The mesocotyl explants were placed on media with the acropetal end up, and mature and immature embryo explants were placed on media with the scutellum-side up. […]
For the first three weeks, the explants were usually trimmed, by removing the top portion of coleoptile 3-5 mm above the crown region for wheat, every 3 to 5 days to inhibit dominant growth.
Four different cytokinins, not in combination with auxin, were tested for their ability to induce multiple shoot induction on wheat mesocotyl explants: BA, kinetin, zeatin and TDZ.

[3] = system: shoots from Bobwhite mesocotyl explants; assay: Root induction of elongated shoots; assay type: cell-based, wheat; details: IBA 1 mg/L
Procedure: Usually three to five weeks after the induction stage culture described above, multiple bud clumps were divided and transferred to a shoot elongation medium, and cultured under 16 h photoperiod at about 25° C. for 3 to 4 weeks. The shoot elongation medium comprised MS basal medium supplemented with ascorbic acid at 100 mg/L, 2-[N-Morpholino]ethanesulfonic acid (MES) at 1.95 g/L, casein hydrolysate at 100 mg/L, maltose at 40 g/L, and Schweizer-Hall® gelling agent at 2 g/L. The elongated shoots were transferred to a rooting medium, comprising MS basal medium supplemented with IBA at 1 mg/L, ascorbic acid at 100 mg/L, 2-[N-Morpholino] ethanesulfonic acid (MES) at 1.95 g/L, casein hydrolysate at 100 mg/L, maltose at 40 g/L, and Schweizer-Hall® gelling agent at 2 g/L, for 3 to 4 weeks, after which sufficient roots had formed to transfer the shoots to soil.
Three genotypes were tested to evaluate shoot elongation from the buds induced in the above described multiple shoot induction step. Bobwhite, 251BW012 and Autry525 were chosen as representative standard, good and poor lines respectively, based on a previous study of embryogenic regeneration capacity. The buds were removed from the media containing the growth regulator combination described in the induction stage, after about 3-5 weeks of culture. […]

[4] = (D) continuous dark first two weeks, then light 16/8 two weeks
[5] = (L) 16 h photoperiod for four weeks

| SMILES | % explants producing 20-80 buds/primary meristem [1] | No. primary meristems produced/explant [1] | % of explants producing 2-5 shoots (each from a single primary meristem) [2, 4] | % of explants producing multiple shoots from a single primary meristem [2, 4] | % of explants producing 2-5 shoots (each from a single primary meristem) [2, 5] | % of explants producing multiple shoots from a single primary meristem [2, 5] | % shoots producing roots [3] |
| --- | --- | --- | --- | --- | --- | --- | --- |
| O=C(Nc1ccccc1)Nc1cnns1 [TDZ, thidiazuron] | 0% | 2-5 | 76.2% | 0% | 80.0% | 0% | – |
| c1coc(CNc2ncnc3[nH]cnc23)c1 [Kinetin, kinetin] | – | – | 23.8% | 0% | 20.0% | 0% | – |
| C/C(=C\CNc1ncnc2[nH]cnc12)CO [Zeatin, zeatin] | – | – | 45.0% | 0% | 20.0% | 0% | – |
| O=C(O)CCCc1c[nH]c2ccccc12 [IBA, 3-indolebutyric acid] | – | – | – | – | – | – | significantly increased the rooting response |
| c1ccc(CNc2ncnc3nc[nH]c23)cc1 [BA, 6-benzylaminopurine] | – | – | 15.0% | 0% | 10.0% | 0% | – |
